Assays:
[1] = system: Mus musculus; test: Anticonvulsant activity in CF1 albino mouse assessed as inhibition of maximal electric shock-induced seizure at 300 mg/kg, ip after 4 hrs; format: functional; conditions: route intraperitoneal
[2] = system: Mus musculus; test: Anticonvulsant activity in CF1 albino mouse assessed as inhibition of maximal electric shock-induced seizure at 300 mg/kg, ip after 0.5 hrs; format: functional; conditions: route intraperitoneal
[3] = system: Mus musculus; test: Anticonvulsant activity in CF1 albino mouse assessed as inhibition of minimal clonic seizure at 100 mg/kg, ip after 0.25 hrs; format: functional; conditions: route intraperitoneal
[4] = system: Rattus norvegicus; test: Anticonvulsant activity in Sprague-Dawley rat assessed as inhibition of maximal electric shock-induced seizure at 30 mg/kg, po after 0.25 hrs; format: functional
[5] = system: Rattus norvegicus; test: Anticonvulsant activity in Sprague-Dawley rat assessed as inhibition of maximal electric shock-induced seizure at 30 mg/kg, po after 4 hrs; format: functional
[6] = system: Mus musculus; test: Anticonvulsant activity in CF1 albino mouse assessed as inhibition of maximal electric shock-induced seizure at 100 mg/kg, ip after 4 hrs; format: functional; conditions: route intraperitoneal
[7] = system: Rattus norvegicus; test: Anticonvulsant activity in Sprague-Dawley rat assessed as inhibition of maximal electric shock-induced seizure at 30 mg/kg, po after 0.5 hrs; format: functional
[8] = system: Mus musculus; test: Anticonvulsant activity in CF1 albino mouse assessed as inhibition of minimal clonic seizure at 100 mg/kg, ip after 4 hrs; format: functional; conditions: route intraperitoneal
[9] = system: Mus musculus; test: Anticonvulsant activity in CF1 albino mouse assessed as inhibition of maximal electric shock-induced seizure at 30 mg/kg, ip after 4 hrs; format: functional; conditions: route intraperitoneal
[10] = system: Rattus norvegicus; test: Anticonvulsant activity in Sprague-Dawley rat assessed as inhibition of maximal electric shock-induced seizure at 30 mg/kg, po after 1 hrs; format: functional
[11] = system: Rattus norvegicus; test: Neurotoxicity in Sprague-Dawley rat at 500 mg/kg, po by positional sense and gait and stance test after 1 hrs; format: toxicity, organism-based; set-up: dose 500 mg/kg, route oral; conditions: in vivo
[12] = system: Mus musculus; test: Anticonvulsant activity in CF1 albino mouse assessed as inhibition of minimal clonic seizure at 100 mg/kg, ip after 2 hrs; format: functional; conditions: route intraperitoneal
[13] = system: Mus musculus; test: Anticonvulsant activity in CF1 albino mouse assessed as inhibition of minimal clonic seizure at 100 mg/kg, ip after 1 hrs; format: functional; conditions: route intraperitoneal
[14] = system: Mus musculus; test: Anticonvulsant activity in CF1 albino mouse assessed as inhibition of maximal electric shock-induced seizure at 30 mg/kg, ip after 0.5 hrs; format: functional; conditions: route intraperitoneal
[15] = system: Mus musculus; test: Anticonvulsant activity in CF1 albino mouse assessed as inhibition of maximal electric shock-induced seizure at 100 mg/kg, ip after 0.5 hrs; format: functional; conditions: route intraperitoneal
[16] = system: Mus musculus; test: Anticonvulsant activity in CF1 albino mouse assessed as inhibition of minimal clonic seizure at 30 mg/kg, ip after 1 hrs; format: functional; conditions: route intraperitoneal
[17] = system: Mus musculus; test: Anticonvulsant activity in CF1 albino mouse assessed as inhibition of minimal clonic seizure at 30 mg/kg, ip after 0.5 hrs; format: functional; conditions: route intraperitoneal
[18] = system: Mus musculus; test: Anticonvulsant activity in CF1 albino mouse assessed as inhibition of minimal clonic seizure at 30 mg/kg, ip after 0.25 hrs; format: functional; conditions: route intraperitoneal
[19] = system: Mus musculus; test: Anticonvulsant activity in CF1 albino mouse assessed as inhibition of minimal clonic seizure at 100 mg/kg, ip after 0.5 hrs; format: functional; conditions: route intraperitoneal
[20] = system: Rattus norvegicus; test: Anticonvulsant activity in Sprague-Dawley rat assessed as inhibition of maximal electric shock-induced seizure at 30 mg/kg, po after 2 hrs; format: functional
[21] = system: Rattus norvegicus; test: Neurotoxicity in Sprague-Dawley rat at 30 mg/kg, po by positional sense and gait and stance test; format: toxicity, organism-based; set-up: dose 30 mg/kg, route oral; conditions: in vivo
[22] = system: Mus musculus; test: Neurotoxicity in CF1 albino mouse at 100 mg/kg, ip by rotarod test; format: toxicity, organism-based; set-up: dose 100 mg/kg, route intraperitoneal; conditions: in vivo

Row | Structure (SMILES) | inhibition in vivo at 300 mg/kg [1] | inhibition in vivo at 300 mg/kg [2] | inhibition in vivo at 30 mg/kg [4] | inhibition in vivo at 30 mg/kg [5] | inhibition in vivo at 100 mg/kg [6] | inhibition in vivo at 30 mg/kg [7] | inhibition in vivo at 30 mg/kg [9] | inhibition in vivo at 30 mg/kg [10] | inhibition in vivo at 30 mg/kg [14] | inhibition in vivo at 100 mg/kg [15] | inhibition in vivo at 30 mg/kg [20] | other results
1 | Nc1ccc(C(=O)c2ccc(N)cc2)cc1 | 100% | 100% | 50% | 75% | 100% | 100% | 0% | 75% | 0% | 100% | 100% | inhibition in vivo at 100 mg/kg [3]: 100%; inhibition in vivo at 100 mg/kg [8]: 0%; Activity [11]: Non-toxic; inhibition in vivo at 100 mg/kg [12]: 0%; inhibition in vivo at 100 mg/kg [13]: 100%; inhibition in vivo at 30 mg/kg [16]: 0%; inhibition in vivo at 30 mg/kg [17]: 0%; inhibition in vivo at 30 mg/kg [18]: 0%; inhibition in vivo at 100 mg/kg [19]: 100%
2 | Nc1ccc(Oc2ccc(N)cc2)cc1 | 100% | 100% | 100% | 100% | 100% | 100% | 0% | 75% | 0% | 100% | 75% | Activity [21]: Non-toxic
3 | Nc1ccc(Cc2ccc(N)cc2)cc1 [4,4'-METHYLENEDIANILINE] | 100% | 100% | 100% | 50% | 0% | 75% | 0% | 100% | 0% | 100% | 100% | Activity [22]: Non-toxic
